Reference: patent US8158647B2, “Substituted pyrrolopyridines and pyrazolopyridines as kinase modulators” (SGX Pharmaceuticals, Inc., priority 2007, dated 2012)

Experiments:
[1] = target: T1, purified and unphosphorylated T315I Abl kinase domain (ABL_T315I_0P) (Mus musculus, UniProt P00520, T315I); experiment: c-Abl T315I (unphosphorylated kinase domain) pyruvate kinase/lactate dehydrogenase coupled enzyme assay; type: biochemical; settings: 10 μM ATP
T1 construct: The c-Abl T3151 KD (kinase domain) was purified as follows; Met-Ser-Leu (vector-derived residues) (N); made in house; host or cells: E. coli BL21(DE3) strains (Codon+RIL, or pSA0145 for the lambda phosphatase co-expression plasmid)
T1 sequence (P00520 242-493 T315I limits assumed): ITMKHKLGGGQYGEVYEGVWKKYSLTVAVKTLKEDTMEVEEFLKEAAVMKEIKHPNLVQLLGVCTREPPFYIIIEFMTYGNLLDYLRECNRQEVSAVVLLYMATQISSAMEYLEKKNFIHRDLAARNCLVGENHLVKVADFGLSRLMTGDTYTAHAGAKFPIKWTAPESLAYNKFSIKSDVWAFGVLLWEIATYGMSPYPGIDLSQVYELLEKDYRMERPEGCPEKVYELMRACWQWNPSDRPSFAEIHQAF
Source text: Although the first of these examples uses the kinase domain of a mutant form of Abl T315I (“Abl T315I KD”), the kinase assays may use various forms of mutant and wild type enzymes, including, for example, the entire protein, the kinase domain, or a portion thereof (e.g. Abl Y393F). The kinases used in the assays may also be of varying phosphorylation states. In the c-Abl example, a mutant kinase at a zero phosphorylation state was used.
c-Abl Pyruvate Kinase/Lactate Dehydrogenase Coupled Enzyme Assay
In the c-Abl Pyruvate Kinase (PK)/Lactate Dehydrogenase (LDH) Coupled Assay the protein kinase dependant phosphorylation of a substrate peptide was coupled to the oxidation of NADH. The oxidation of NADH to NAD+ was detected by monitoring a decrease in absorbance at 340 nm.
Materials: Abl substrate peptide=EAIYAAPFAKKK-OH (SEQ ID NO: 1) (Biopeptide, San Diego, Calif.); […]NADH (Sigma Cat#N-8129, FW=709.4); 2M MgCl2; 1M HEPES buffer, pH 7.5; Phosphoenolpyruvate (PEP) (Sigma Cat#P-7002, FW=234); Lactate dehydrogenase (LDH) (Worthington Biochemical Cat#2756); Pyruvate Kinase (PK) (Sigma Cat#P-9136); ATP (Sigma Cat#A-3377, FW=551); Greiner 384-well UV star plate; and purified and unphosphorylated T3151 Abl kinase domain.
Stock Solutions: 10 mM NADH (7.09 mg/ml in miliQH2O) made fresh daily; 10 mM Abl substrate peptide (13.4 mg/ml in miliQH2O) stored at −20° C.; 100 mM HEPES buffer, pH 7.5 (5 ml 1M stock+45 ml miliQH2O); 100mM MgCl2 (5 ml 2M MgCl2+95 ml dH2O); 100 mM PEP (23.4 mg/ml in dH2O) stored at −20° C.; 10mM ATP (5.51 mg/ml in dH2O) stored at −20° C. (diluted 50 μl into total of 10 ml miliQH2O daily=50 μM ATP working stock); 1000 U/ml PK (U/mg varies with lot) flash-frozen under liquid N2 and stored at −80° C.; and 1000 U/ml LDH (U/mg varies with lot) flash-frozen under liquid N2 and stored at −80° C.
Standard Assay Setup for 384-well format (50 μl reaction): 300 μM NADH; 10 mM MgCl2; 2 mM PEP; 45 U/ml PK; 60 U/ml LDH; 200 μM Abl substrate peptide; 2.5 μl test compound (in DMSO); 2 μg/ml Abl kinase domain; 10 μM ATP; 100 mM HEPES buffer. Positive controls contained DMSO with no test compound. Negative controls contained 5 μl of 0.5M EDTA (50 mM in the assay). The dephosphorylated form of the c-Abl T315I mutant was used in the biochemical screening assays. The kinase reaction was initiated at time t=0 by the addition of ATP.
Activity was measured by following the time-dependent loss of NADH by absorbance spectroscopy at 340 nm. The linear portion of the resulting progress curve was then analyzed by linear regression to get the activity in absorbance units/time, reported as the slope of that best fit line (moles/unit time can be calculated from using molar extinction coefficient for NADH at 340 nm, 6250M^−1 cm^−1).
Screening data was evaluated using the equation: Z′=1-[3*(σ++σ−)/|μ+−μ−|] (Zhang, et al., 1999 J Biomol Screening 4(2) 67-73), where μ denotes the mean and σ the standard deviation. The subscript designates positive or negative controls. The Z′ score for a robust screening assay should be ≧0.50. The typical threshold=μ+−3*σ+−. Any value that falls below the threshold was designated a “hit”.
Dose response was analyzed using the equation: y=min+{(max−min)/(1+10^[compound]−logIC50)}, where y is the observed initial slope, max=the slope in the absence of inhibitor, min=the slope at infinite inhibitor, and the IC50 is the [compound] that corresponds to ½ the total observed amplitude (Amplitude=max−min).
To measure modulation, activation, or inhibition of Abl KD, a test compound was added to the assay at a range of concentrations. Inhibitors may inhibit Abl KD activity at an IC50 in the micromolar range, the nanomolar range, or, for example, in the subnanomolar range.
An open-reading frame for c-Abl was amplified from a Mus musculus (mouse) cDNA library prepared from freshly harvested mouse liver using a commercially available kit (Invitrogen) by PCR using the following primers: […]
The c-Abl T3151 KD (kinase domain) was purified as follows. […]

[2] = target: T2, ABL P210WT BAF3 cells (Homo sapiens, UniProt P00519); experiment: 96-well XTT cell survival assay, BaF3 ABL P210WT; type: cell-based; settings: ABL P210 WT, 72 hours, read-out: CELL BIO ABL P210WT BAF3 XTT (IC50)
T2 construct: ABL P210WT BAF3; fused on or other part: P11274 (Breakpoint cluster region protein)
Method: (§1) MV4-11 and THP cells were maintained in Iscove's Modified Dulbecco's Medium supplemented with 10% fetal bovine serum (FBS) and penicillin/streptomycin, Ba/F3 cells were maintained in RPMI 1640 supplemented with 10% FBS, penicillin/streptomycin and 5 ng/ml recombinant mouse IL-3.
(§2) Compounds were tested in the following assays in duplicate.
(§3) 96-well XTT assay: Cells (e.g. BaF3 315I, M3511, or E255K cells) were grown in growth media containing various concentrations of compounds (duplicates) on a 96-well plate for 72 hours at 37° C. The starting cell number was 5000-8000 cells per well and volume was 120 μl. At the end of the 72-hour incubation, 40 μl of XTT labeling mixture (50:1 solution of sodium 3′-[1-(phenylamino-carbonyl)-3,4-tetrazolium]-bis(4-methoxy-6-nitro) benzene sulfonic acid hydrate and Electron-coupling reagent: PMS (N-methyl dibenzopyrazine methyl sulfate) were added to each well of the plate. After an additional 2-6 hours of incubation at 37° C., the absorbance reading at 405 nm with background correction at 650 nm was measured with a spectrophotometer.

[3] = target: T3, ABL T315I BAF3 cells (Homo sapiens, UniProt P00519, T315I, cells depend on it); experiment: 96-well XTT cell survival assay, BaF3 ABL T315I; type: cell-based; settings: 72 hours, read-out: CELL BIO ABL T315I BAF3 XTT (IC50)
T3 construct: ABL T315I BAF3; fused on or other part: P11274 (Breakpoint cluster region protein)
Method: as §1, §2, §3

| Structure (SMILES) | ABL_T315I_0P (IC50) [1] | GI50 [2] [nM] | GI50 [3] [nM] |
| --- | --- | --- | --- |
| COc1cc(F)ccc1-c1c[nH]c2ncc(-c3cnc(N)c(C(=O)N(C)C)c3)c(Cl)c12 [2-Amino-5-[4-chloro-3-(4-fluoro-2-methoxy-phenyl)-1H-pyrrolo[2,3-b]pyridin-5-yl]-N,N-dimethyl-nicotinamide] | D (<0.01 μM) | 10 to 100 | 10 to 100 |
| COc1ccc(F)cc1-c1c[nH]c2ncc(-c3cnc(N)c(C(=O)N(C)C)c3)c(Cl)c12 [2-Amino-5-[4-chloro-3-(5-fluoro-2-methoxy-phenyl)-1H-pyrrolo[2,3-b]pyridin-5-yl]-N,N-dimethyl-nicotinamide] | D (<0.01 μM) | < 10 | < 10 |
| COc1ccccc1-c1c[nH]c2ncc(-c3cncc(C(O)C(=O)N(C)C)c3)c(C)c12 (stereo not drawn) [2-Hydroxy-2-{5-[3-(2-methoxy-phenyl)-4-methyl-1H-pyrrolo[2,3-b]pyridin-5-yl]-pyridin-3-yl}-N,N-dimethyl-acetamide] | D (<0.01 μM) | 10 to 100 | 10 to 100 |
| CNc1c(-c2cncc(C(O)C(=O)N(C)C)c2)cnc2[nH]cc(-c3ccccc3OC)c12 (stereo not drawn) [2-Hydroxy-2-{5-[3-(2-methoxy-phenyl)-4-methylamino-1H-pyrrolo[2,3-b]pyridin-5-yl]-pyridin-3-yl}-N,N-dimethyl-acetamide] | D (<0.01 μM) | 100 to 1000 | 100 to 1000 |
| COc1ccccc1-c1c[nH]c2ncc(-c3cncc(C(O)C(=O)N(C)C)c3)c(SC)c12 (stereo not drawn) [2-Hydroxy-2-{5-[3-(2-methoxy-phenyl)-4-methylsulfanyl-1H-pyrrolo[2,3-b]pyridin-5-yl]-pyridin-3-yl}-N,N-dimethyl-acetamide] | D (<0.01 μM) | 100 to 1000 | 10 to 100 |
| COc1ccccc1-c1c[nH]c2ncc(-c3cncc(C(O)C(=O)N(C)C)c3)c(C(F)(F)F)c12 (stereo not drawn) [2-Hydroxy-2-{5-[3-(2-methoxy-phenyl)-4-trifluoromethyl-1H-pyrrolo[2,3-b]pyridin-5-yl]-pyridin-3-yl}-N,N-dimethyl-acetamide] | D (<0.01 μM) | 10 to 100 | 10 to 100 |
| COc1ccccc1-c1c[nH]c2ncc(-c3cncc(C(O)C(=O)N(C)C)c3)c(O)c12 (stereo not drawn) [2-Hydroxy-2-{5-[4-hydroxy-3-(2-methoxy-phenyl)-1H-pyrrolo[2,3-b]pyridin-5-yl]-pyridin-3-yl}-N,N-dimethyl-acetamide] | C (0.1-0.01 μM) | > 1000 | > 1000 |
| COc1ccccc1-c1c[nH]c2ncc(-c3cncc(C(O)C(=O)N(C)C)c3)c(OC)c12 (stereo not drawn) [2-Hydroxy-2-{5-[4-methoxy-3-(2-methoxy-phenyl)-1H-pyrrolo[2,3-b]pyridin-5-yl]-pyridin-3-yl}-N,N-dimethyl-acetamide] | D (<0.01 μM) | 10 to 100 | 10 to 100 |
| CN(C)C(=O)C(O)c1cncc(-c2cnc3[nH]cc(-c4ccccc4)c3c2Cl)c1 (stereo not drawn) [2-[5-(4-Chloro-3-phenyl-1H-pyrrolo[2,3-b]pyridin-5-yl)-pyridin-3-yl]-2-hydroxy-N,N-dimethyl-acetamide] | D (<0.01 μM) | 100 to 1000 | 100 to 1000 |
| CN(C)C(=O)Cc1cncc(-c2cnc3[nH]cc(-c4ccccc4)c3c2Cl)c1 [2-[5-(4-Chloro-3-phenyl-1H-pyrrolo[2,3-b]pyridin-5-yl)-pyridin-3-yl]-N,N-dimethyl-acetamide] | D (<0.01 μM) | > 1000 | > 1000 |
| COc1ccccc1-c1c[nH]c2ncc(-c3cncc(C(O)C(=O)N(C)C)c3)c(N)c12 (stereo not drawn) [2-{5-[4-Amino-3-(2-methoxy-phenyl)-1H-pyrrolo[2,3-b]pyridin-5-yl]-pyridin-3-yl}-2-hydroxy-N,N-dimethyl-acetamide] | D (<0.01 μM) | 100 to 1000 | 100 to 1000 |
| CN(C)C(=O)C(O)c1cncc(-c2cnc3[nH]cc(-c4cccc(F)c4F)c3c2Cl)c1 (stereo not drawn) [2-{5-[4-Chloro-3-(2,3-difluoro-phenyl)-1H-pyrrolo[2,3-b]pyridin-5-yl]-pyridin-3-yl}-2-hydroxy-N,N-dimethyl-acetamide] | D (<0.01 μM) | 100 to 1000 | 100 to 1000 |
| CN(C)C(=O)C(=O)c1cncc(-c2cnc3[nH]cc(-c4cccc(F)c4F)c3c2Cl)c1 [2-{5-[4-Chloro-3-(2,3-difluoro-phenyl)-1H-pyrrolo[2,3-b]pyridin-5-yl]-pyridin-3-yl}-N,N-dimethyl-2-oxo-acetamide] | C (0.1-0.01 μM) | > 1000 | > 1000 |
| CN(C)C(=O)Cc1cncc(-c2cnc3[nH]cc(-c4cccc(F)c4F)c3c2Cl)c1 [2-{5-[4-Chloro-3-(2,3-difluoro-phenyl)-1H-pyrrolo[2,3-b]pyridin-5-yl]-pyridin-3-yl}-N,N-dimethyl-acetamide] | D (<0.01 μM) | 100 to 1000 | 100 to 1000 |
| CN(C)C(=O)C(O)c1cncc(-c2cnc3[nH]cc(-c4ccccc4Cl)c3c2Cl)c1 (stereo not drawn) [2-{5-[4-Chloro-3-(2-chloro-phenyl)-1H-pyrrolo[2,3-b]pyridin-5-yl]-pyridin-3-yl}-2-hydroxy-N,N-dimethyl-acetamide] | D (<0.01 μM) | 100 to 1000 | 100 to 1000 |
